Experimental data from patent US20100331312A1, “MODULATORS OF THE HISTAMINE H3 RECEPTOR USEFUL FOR THE TREATMENT OF DISORDERS RELATED THERETO” (ARENA PHARMACEUTICALS, INC., priority 2008, published 2010).
Where a name gives a salt, the structure may show the parent alone.

How the values were obtained:
[1] = Dynamic vapor sorption (DVS) hygroscopicity; type: physicochemical; settings: 25° C.
Description: Dynamic Vapor Sorption (DVS)
Hygroscopicity was measured using a dynamic moisture-sorption analyzer, VTI Corporation, SGA-100. The sample was placed as-is in a tared sample holder on the VTI balance. A drying step was run at 40° C. and ˜1% RH for 120 minutes. The isotherm conditions are 25° C. with steps of 20% RH from 10% RH up to 90% RH and back to 10% RH. Weight is checked every 2 minutes. Percent weight change of <0.01% in 20 minutes or 2 hours, whichever occurs first, is required before continuing to the next step. The DVS profile for the crystalline form (Form 1) of (R)-2-hydroxy-1-(6-(4-(2-(2-methylpyrrolidin-1-yl)ethyl)phenyl)-3,4-dihydroisoquinolin-2(1H)-yl)ethanone hydrochloride is shown in FIG. 16.

[2] = molecular target: T1, human histamine H3 receptor (Homo sapiens, UniProt Q9Y5N1); assay: Human histamine H3 receptor binding assay, MDS Pharma Services (Taiwan), Catalogue No. 239810
T1 construct: purchased MDS Pharma Services (Taiwan) 239810
T1 sequence (Q9Y5N1 whole entry): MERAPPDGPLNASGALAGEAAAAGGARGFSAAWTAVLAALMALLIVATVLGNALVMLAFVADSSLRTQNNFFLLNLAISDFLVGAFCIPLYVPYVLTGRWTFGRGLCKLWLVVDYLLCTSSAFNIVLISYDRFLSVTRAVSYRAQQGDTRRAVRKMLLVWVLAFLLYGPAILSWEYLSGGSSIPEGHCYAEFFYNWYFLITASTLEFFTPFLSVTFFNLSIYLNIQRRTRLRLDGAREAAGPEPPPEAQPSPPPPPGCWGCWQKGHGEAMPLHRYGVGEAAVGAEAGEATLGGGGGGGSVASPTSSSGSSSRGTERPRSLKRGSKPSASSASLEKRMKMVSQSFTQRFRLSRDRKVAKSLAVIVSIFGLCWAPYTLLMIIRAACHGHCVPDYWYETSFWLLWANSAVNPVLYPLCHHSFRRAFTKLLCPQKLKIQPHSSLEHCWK
Description: Human Histamine H3 Receptor Binding Assay—MDS Pharma Services (Taiwan)
Compounds of the invention were tested for their ability to bind to the human histamine H3 receptor using the MDS Pharma Services (Taiwan) assay, Catalogue No. 239810.

Histamine H3 Receptor [3] = molecular target: T2, Histamine H3 Receptor (Rattus norvegicus, UniProt Q9QYN8); assay: Blockade of RAMH-induced drinking assay; type: in vivo; settings: male Sprague Dawley rats, 0.3 mg/kg PO, RAMH 3 mg/kg SC, reduction in water intake
T2 sequence (Q9QYN8 whole entry): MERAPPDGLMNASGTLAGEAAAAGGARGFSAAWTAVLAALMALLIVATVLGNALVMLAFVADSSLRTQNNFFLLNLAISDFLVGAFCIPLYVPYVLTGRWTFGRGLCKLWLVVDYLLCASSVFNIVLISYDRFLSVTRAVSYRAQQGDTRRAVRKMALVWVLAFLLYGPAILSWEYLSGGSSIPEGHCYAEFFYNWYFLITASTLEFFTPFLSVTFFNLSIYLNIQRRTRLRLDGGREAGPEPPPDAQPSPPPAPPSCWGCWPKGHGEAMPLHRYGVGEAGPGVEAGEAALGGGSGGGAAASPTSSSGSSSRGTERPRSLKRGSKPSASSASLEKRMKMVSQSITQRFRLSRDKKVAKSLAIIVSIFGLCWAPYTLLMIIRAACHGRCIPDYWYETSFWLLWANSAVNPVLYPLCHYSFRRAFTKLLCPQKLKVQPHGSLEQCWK
Description: Blockade of RAMH-Induced Drinking Assay
When administered to rodents, histamine H3 receptor agonists such as (R)-α-methylhistamine (RAMH) induce a drinking response that is sensitive to reversal with a histamine H3 receptor antagonist. Blockade of RAMH-induced drinking can therefore be utilized as an in vivo assay for functional histamine H3 receptor antagonist activity. In this assay, male Sprague Dawley rats (250-350 g) were housed three per cage and maintained under a reverse 12 h light cycle (lights off at 1130 h). At 1030 h on the day of test, rats were individually housed in new cages and food was removed. 120 min later, rats were administered test article (vehicle or histamine H3 receptor antagonist, 0.3 mg/kg PO). 30 min later, water was removed, and RAMH (vehicle or RAMH 3 mg/kg salt SC) was administered. 10 min after administration of RAMH, weighed water bottles were placed in the cages, and drinking was allowed for 20 min. Water consumption was determined for each animal by weighing each bottle to the nearest 0.1 g. Data is expressed as percentage reduction in water intake according to the following formula:
[((VEH/RAMH)−(ANTAGONIST/RAMH))/((VEH/RAMH)−(VEH/VEH))]*100

Histamine H3 Receptor [4] = molecular target: T2, Histamine H3 Receptor; assay: [3H] N-alpha-methyl-histamine competitive histamine H3 receptor binding assay; set-up: A crude membrane fraction was prepared from whole rat brain cortex; from tissue; host or cells: whole rat brain cortex, crude membrane fraction; settings: whole rat brain cortex membranes, [3H]-N-α-methylhistamine 1 nM
Description: [^3H] N-Alpha-Methyl-Histamine Competitive Histamine H3 Receptor Binding Assay
The histamine receptor binding assay was conducted using standard laboratory procedures as described below. A crude membrane fraction was prepared from whole rat brain cortex using a polytron to homogenize the tissue followed by differential centrifugation in a HEPES-based buffer containing protease inhibitors. Membranes where frozen at −80° C. until needed. Frozen membranes were thawed and resuspended in ice-cold assay buffer consisting of 50 mM TRIS containing 5 mM EDTA (pH=7.4). 50 micrograms (μg) of membrane protein was added to each well of a 96-well assay plate along with test compound and [^3H]-N-α-methylhistamine (1 nanomolar (nM) final assay concentration). Imetit was used as an assay positive control at varying concentrations. The plate was incubated for 30 min at room temperature. The assay was terminated by rapid filtration through a 96-well glass fiber filtration plate (GF/C) using a cell harvester (Perkin-Elmer). Captured membranes were washed three times with cold assay buffer and plates were dried at 50° C. 35 microliters (μL) of scintillation cocktail was added to each well and membrane-bound radioactivity was recorded using a TopCount 96-well plate scintillation counter (Perkin-Elmer).

SMILES | % inhibition of RAMH-induced drinking (Histamine H3 Receptor [3]) [%] | Ki (Histamine H3 Receptor [4]) [nM] | other results
C[C@@H]1CCCN1CCc1ccc(-c2ccc3c(c2)CCN(C(=O)CO)C3)cc1 [Compound 10 HCl Salt (Form 1), (R)-2-hydroxy-1-(6-(4-(2-(2-methylpyrrolidin-1-yl)ethyl)phenyl)-3,4-dihydroisoquinolin-2(1H)-yl)ethanone hydrochloride] | – | – | DVS absorption at 90% relative humidity ([1]; crystalline Form 1, hydrochloride): FIG. 16: absorption of less than 0.25%; DVS absorption at 90% relative humidity ([1]; crystalline Form 1, listed as Form 1 of the HCl salt of Compound 10, hydrochloride): about 0.25%
C[C@@H]1CCCN1CCc1ccc(-c2ccc3c(c2)CCN(C(=O)c2ccccn2)C3)cc1 [Compound 18, (R)-(6-(4-(2-(2-methylpyrrolidin-1-yl)ethyl)phenyl)-3,4-dihydroisoquinolin-2(1H)-yl)(pyridin-2-yl)methanone] | 66.1 | – | Ki [2]: 2.15 nM
C[C@@H]1CCCN1CCc1ccc(-c2ccc3c(c2)CN(C(=O)C2CCOCC2)C3)cc1 [Compound 12, (R)-(5-(4-(2-(2-methylpyrrolidin-1-yl)ethyl)phenyl)isoindolin-2-yl)(tetrahydro-2H-pyran-4-yl)methanone] | – | 0.09 | –
C[C@@H]1CCCN1CCc1ccc(-c2ccc3c(c2)CCN(C(=O)C2CC2)C3)cc1 [Compound 3, (R)-cyclopropyl(6-(4-(2-(2-methylpyrrolidin-1-yl)ethyl)phenyl)-3,4-dihydroisoquinolin-2(1H)-yl)methanone] | – | 0.45 | –
C[C@@H]1CCCN1CCc1ccc(-c2ccc3c(c2)CN(C(=O)C2CC2)C3)cc1 [Compound 5, (R)-cyclopropyl(5-(4-(2-(2-methylpyrrolidin-1-yl)ethyl)phenyl)isoindolin-2-yl)methanone] | – | 0.11 | Ki [2]: 0.57 nM
COc1ccc(C(=O)N2CCc3cc(-c4ccc(CCN5CCC[C@H]5C)cc4)ccc3C2)cc1 [Compound 9, (R)-(4-methoxyphenyl)(6-(4-(2-(2-methylpyrrolidin-1-yl)ethyl)phenyl)-3,4-dihydroisoquinolin-2(1H)-yl)methanone] | – | 1.1 | –
C[C@@H]1CCCN1CCc1ccc(-c2ccc3c(c2)CCN(C(=O)CCO)C3)cc1 [Compound 16, (R)-3-hydroxy-1-(6-(4-(2-(2-methylpyrrolidin-1-yl)ethyl)phenyl)-3,4-dihydroisoquinolin-2(1H)-yl)propan-1-one] | – | 1.52 | –
COCCC(=O)N1CCc2ccc(-c3ccc(CCN4CCC[C@H]4C)cc3)cc2C1 [Compound 1, (R)-3-methoxy-1-(7-(4-(2-(2-methylpyrrolidin-1-yl)ethyl)phenyl)-3,4-dihydroisoquinolin-2(1H)-yl)propan-1-one] | 81.6 | – | –
C[C@@H]1CCCN1CCc1ccc(-c2ccc3c(c2)CCN(C(=O)c2ccncc2)C3)cc1 [Compound 14, (R)-(6-(4-(2-(2-methylpyrrolidin-1-yl)ethyl)phenyl)-3,4-dihydroisoquinolin-2(1H)-yl)(pyridin-4-yl)methanone] | 40.7 | – | –
